Data from the NIST ThermoML archive (doi:10.1021/acs.jced.8b01146).
Where “and” joins values, the source holds several entries; their conditions need not be identical. Equal values may be shown once. Numbers after ± are expanded uncertainties.

Assays:
[1] = xn = mol fraction of the nth substance listed; conditions: 100 kPa, Liquid, Vibrating tube method
[2] = excess molar enthalpy (molar enthalpy of mixing); xn = mol fraction of the nth substance listed; conditions: 100 kPa, Liquid, Calvet calorimetry

CCC1CCC(=O)O1 (stereo not drawn) [2(3H)-furanone, 5-ethyldihydro-] + O
mass density ([1]; 288.15 K, x1 = 0.000808): 999.463 ± 0.034 kg/m3 and 999.462 ± 0.034 kg/m3 | mass density ([1]; 288.15 K, x1 = 0.001615): 999.823 ± 0.034 kg/m3 | mass density ([1]; 288.15 K, x1 = 0.001616): 999.824 ± 0.034 kg/m3 | mass density ([1]; 288.15 K, x1 = 0.002421): 1000.19 ± 0.035 kg/m3 | mass density ([1]; 288.15 K, x1 = 0.002422): 1000.19 ± 0.035 kg/m3 | mass density ([1]; 288.15 K, x1 = 0.003226): 1000.55 ± 0.036 kg/m3 and 1000.54 ± 0.036 kg/m3 | mass density ([1]; 288.15 K, x1 = 0.004029): 1000.9 ± 0.038 kg/m3 | mass density ([1]; 288.15 K, x1 = 0.004831): 1001.26 ± 0.04 kg/m3 | mass density ([1]; 288.15 K, x1 = 0.004832): 1001.26 ± 0.04 kg/m3 | mass density ([1]; 298.15 K, x1 = 0.000808): 997.357 ± 0.035 kg/m3 and 997.355 ± 0.035 kg/m3 | mass density ([1]; 298.15 K, x1 = 0.001615): 997.666 ± 0.035 kg/m3 | mass density ([1]; 298.15 K, x1 = 0.002421): 997.974 ± 0.035 kg/m3 | mass density ([1]; 298.15 K, x1 = 0.002422): 997.975 ± 0.035 kg/m3 | mass density ([1]; 298.15 K, x1 = 0.003226): 998.276 ± 0.036 kg/m3 | mass density ([1]; 298.15 K, x1 = 0.004029): 998.58 ± 0.037 kg/m3 | mass density ([1]; 298.15 K, x1 = 0.004831): 998.888 ± 0.034 kg/m3 | mass density ([1]; 298.15 K, x1 = 0.004832): 998.888 ± 0.034 kg/m3 | mass density ([1]; 308.15 K, x1 = 0.000809): 994.296 ± 0.036 kg/m3 | mass density ([1]; 308.15 K, x1 = 0.001616): 994.558 ± 0.036 kg/m3 | mass density ([1]; 308.15 K, x1 = 0.001617): 994.559 ± 0.036 kg/m3 | mass density ([1]; 308.15 K, x1 = 0.002422): 994.819 ± 0.037 kg/m3 | mass density ([1]; 308.15 K, x1 = 0.002423): 994.819 ± 0.037 kg/m3 | mass density ([1]; 308.15 K, x1 = 0.003227): 995.082 ± 0.037 kg/m3 | mass density ([1]; 308.15 K, x1 = 0.003228): 995.075 ± 0.037 kg/m3 | mass density ([1]; 308.15 K, x1 = 0.004031): 995.334 ± 0.038 kg/m3 | mass density ([1]; 308.15 K, x1 = 0.004032): 995.334 ± 0.038 kg/m3 | mass density ([1]; 308.15 K, x1 = 0.004834): 995.586 ± 0.036 kg/m3 | mass density ([1]; 308.15 K, x1 = 0.004835): 995.586 ± 0.036 kg/m3 | mass density ([1]; 318.15 K, x1 = 0.000808): 990.434 ± 0.038 kg/m3 | mass density ([1]; 318.15 K, x1 = 0.001615): 990.653 ± 0.038 kg/m3 | mass density ([1]; 318.15 K, x1 = 0.001616): 990.654 ± 0.038 kg/m3 | mass density ([1]; 318.15 K, x1 = 0.002421): 990.873 ± 0.038 kg/m3 | mass density ([1]; 318.15 K, x1 = 0.002422): 990.873 ± 0.038 kg/m3 | mass density ([1]; 318.15 K, x1 = 0.003226): 991.088 ± 0.038 kg/m3 | mass density ([1]; 318.15 K, x1 = 0.003227): 991.089 ± 0.038 kg/m3 | mass density ([1]; 318.15 K, x1 = 0.004029): 991.301 ± 0.039 kg/m3 | mass density ([1]; 318.15 K, x1 = 0.00403): 991.301 ± 0.039 kg/m3 | mass density ([1]; 318.15 K, x1 = 0.004832): 991.512 ± 0.039 kg/m3 | mass density ([1]; 318.15 K, x1 = 0.004833): 991.512 ± 0.039 kg/m3 | excess molar enthalpy ([2]; 288.15 K, x1 = 0.000808): -0.0011 kcal/mol | excess molar enthalpy ([2]; 288.15 K, x1 = 0.001615): -0.00217 ± 0.000203 kcal/mol | excess molar enthalpy ([2]; 288.15 K, x1 = 0.001616): -0.00217 ± 0.000203 kcal/mol | excess molar enthalpy ([2]; 288.15 K, x1 = 0.002421): -0.00322 ± 0.000213 kcal/mol | excess molar enthalpy ([2]; 288.15 K, x1 = 0.002422): -0.00321 ± 0.000213 kcal/mol | excess molar enthalpy ([2]; 288.15 K, x1 = 0.003226): -0.00418 kcal/mol | excess molar enthalpy ([2]; 288.15 K, x1 = 0.004029): -0.00515 kcal/mol | excess molar enthalpy ([2]; 288.15 K, x1 = 0.004831): -0.00608 ± 0.000239 kcal/mol | excess molar enthalpy ([2]; 288.15 K, x1 = 0.004832): -0.00607 ± 0.000239 kcal/mol | excess molar enthalpy ([2]; 298.15 K, x1 = 0.000808): -0.000746 kcal/mol and -0.000743 kcal/mol | excess molar enthalpy ([2]; 298.15 K, x1 = 0.001615): -0.00146 ± 0.000196 kcal/mol | excess molar enthalpy ([2]; 298.15 K, x1 = 0.002421): -0.00215 ± 0.000203 kcal/mol | excess molar enthalpy ([2]; 298.15 K, x1 = 0.002422): -0.00215 ± 0.000203 kcal/mol | excess molar enthalpy ([2]; 298.15 K, x1 = 0.003226): -0.00277 kcal/mol and -0.00278 kcal/mol | excess molar enthalpy ([2]; 298.15 K, x1 = 0.004029): -0.00339 kcal/mol and -0.0034 kcal/mol | excess molar enthalpy ([2]; 298.15 K, x1 = 0.004831): -0.004 ± 0.00022 kcal/mol | excess molar enthalpy ([2]; 298.15 K, x1 = 0.004832): -0.00401 ± 0.00022 kcal/mol | excess molar enthalpy ([2]; 308.15 K, x1 = 0.000809): -0.000394 ± 0.000189 kcal/mol | excess molar enthalpy ([2]; 308.15 K, x1 = 0.001616): -0.000758 ± 0.000191 kcal/mol | excess molar enthalpy ([2]; 308.15 K, x1 = 0.001617): -0.000762 ± 0.000191 kcal/mol | excess molar enthalpy ([2]; 308.15 K, x1 = 0.002422): -0.00109 ± 0.000194 kcal/mol | excess molar enthalpy ([2]; 308.15 K, x1 = 0.002423): -0.0011 ± 0.000194 kcal/mol | excess molar enthalpy ([2]; 308.15 K, x1 = 0.003227): -0.00141 ± 0.000196 kcal/mol | excess molar enthalpy ([2]; 308.15 K, x1 = 0.003228): -0.0014 ± 0.000196 kcal/mol | excess molar enthalpy ([2]; 308.15 K, x1 = 0.004031): -0.00169 ± 0.000198 kcal/mol | excess molar enthalpy ([2]; 308.15 K, x1 = 0.004032): -0.00169 ± 0.000198 kcal/mol | excess molar enthalpy ([2]; 308.15 K, x1 = 0.004834): -0.00193 ± 0.000201 kcal/mol | excess molar enthalpy ([2]; 308.15 K, x1 = 0.004835): -0.00196 ± 0.000201 kcal/mol | excess molar enthalpy ([2]; 318.15 K, x1 = 0.000808): -4.92e-05 ± 0.000186 kcal/mol | excess molar enthalpy ([2]; 318.15 K, x1 = 0.001615): -7.07e-05 ± 0.000186 kcal/mol | excess molar enthalpy ([2]; 318.15 K, x1 = 0.001616): -7.12e-05 ± 0.000186 kcal/mol | excess molar enthalpy ([2]; 318.15 K, x1 = 0.002421): -6.91e-05 ± 0.000186 kcal/mol | excess molar enthalpy ([2]; 318.15 K, x1 = 0.002422): -6.79e-05 ± 0.000186 kcal/mol | excess molar enthalpy ([2]; 318.15 K, x1 = 0.003226): -4.04e-05 ± 0.000186 kcal/mol | excess molar enthalpy ([2]; 318.15 K, x1 = 0.003227): -4.28e-05 ± 0.000186 kcal/mol | excess molar enthalpy ([2]; 318.15 K, x1 = 0.004029): 8.13e-06 kcal/mol | excess molar enthalpy ([2]; 318.15 K, x1 = 0.00403): 1.51e-05 kcal/mol | excess molar enthalpy ([2]; 318.15 K, x1 = 0.004832): 8.6e-05 ± 0.000186 kcal/mol | excess molar enthalpy ([2]; 318.15 K, x1 = 0.004833): 9.01e-05 ± 0.000186 kcal/mol
